This note sets out measurements from patent US20060235222A1, “Indole-derivative modulators of steroid hormone nuclear receptors” (ELI LILLY AND COMPANY, priority 2003, published 2006).

Usually Ki stands for the equilibrium dissociation constant of an inhibitor or competing ligand from its target.

A value given as a limit tells only on which side of the number the result lay.

The target of one assay is T1, human MR (Homo sapiens, UniProt P08235).
T1 construct: The full length human MR gene is cloned from a human kidney or human brain cDNA library; inferred from own knowledge of the pAcHLT vector (N); made in house; host or cells: Sf9 insect cells (baculovirus)
T1 sequence (P08235 1-984): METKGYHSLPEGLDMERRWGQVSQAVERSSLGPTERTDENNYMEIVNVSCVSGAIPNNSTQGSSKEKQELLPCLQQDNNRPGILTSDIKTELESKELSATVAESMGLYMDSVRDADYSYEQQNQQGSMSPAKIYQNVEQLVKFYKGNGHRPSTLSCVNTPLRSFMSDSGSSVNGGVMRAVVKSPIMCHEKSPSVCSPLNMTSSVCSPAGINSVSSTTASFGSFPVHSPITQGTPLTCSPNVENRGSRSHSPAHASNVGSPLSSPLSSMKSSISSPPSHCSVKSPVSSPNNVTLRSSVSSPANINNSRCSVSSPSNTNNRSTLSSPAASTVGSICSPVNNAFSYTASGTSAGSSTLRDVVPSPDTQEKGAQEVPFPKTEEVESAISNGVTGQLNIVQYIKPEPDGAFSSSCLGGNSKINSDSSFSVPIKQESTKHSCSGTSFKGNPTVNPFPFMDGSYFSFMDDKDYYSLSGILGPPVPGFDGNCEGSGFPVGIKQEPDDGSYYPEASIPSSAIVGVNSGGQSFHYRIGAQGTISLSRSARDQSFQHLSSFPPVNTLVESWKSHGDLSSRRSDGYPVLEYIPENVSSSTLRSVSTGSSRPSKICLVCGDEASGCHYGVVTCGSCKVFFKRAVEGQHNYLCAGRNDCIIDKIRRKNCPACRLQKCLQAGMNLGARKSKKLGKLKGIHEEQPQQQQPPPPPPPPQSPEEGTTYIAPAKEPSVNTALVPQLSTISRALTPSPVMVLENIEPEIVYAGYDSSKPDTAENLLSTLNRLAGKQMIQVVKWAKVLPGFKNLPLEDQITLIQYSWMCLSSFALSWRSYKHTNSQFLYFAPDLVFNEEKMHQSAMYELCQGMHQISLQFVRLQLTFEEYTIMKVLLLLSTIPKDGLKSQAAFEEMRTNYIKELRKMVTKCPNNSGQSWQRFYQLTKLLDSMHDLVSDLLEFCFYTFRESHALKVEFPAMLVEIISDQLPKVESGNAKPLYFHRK
Kind of assay: Mineralocorticoid Receptor Binding Assay (Method 1), [3H]-aldosterone competition. As to conditions: 0.5 nM [3H]-aldosterone, human MR expressed in Sf9 cells. Put shortly: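 Full-length human MR expressed in Sf9 cells via baculovirus; lysate supernatant (about 20-25 μg protein) incubated with 0.5 nM [3H]-aldosterone and test compound for about 16 h at 4° C. Buffer was Tris/molybdate/phosphate/pyrophosphate with 10% glycerol, pH 7.5; filter-bound complex counted by scintillation.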

The next assay deals with T2, glucocorticoid receptor (Homo sapiens, UniProt P04150).
T2 construct: containing 50-200 ug of A549 cell extract and 1.86 nM; host or cells: A549 human lung epithelial cells
T2 sequence (P04150 1-777): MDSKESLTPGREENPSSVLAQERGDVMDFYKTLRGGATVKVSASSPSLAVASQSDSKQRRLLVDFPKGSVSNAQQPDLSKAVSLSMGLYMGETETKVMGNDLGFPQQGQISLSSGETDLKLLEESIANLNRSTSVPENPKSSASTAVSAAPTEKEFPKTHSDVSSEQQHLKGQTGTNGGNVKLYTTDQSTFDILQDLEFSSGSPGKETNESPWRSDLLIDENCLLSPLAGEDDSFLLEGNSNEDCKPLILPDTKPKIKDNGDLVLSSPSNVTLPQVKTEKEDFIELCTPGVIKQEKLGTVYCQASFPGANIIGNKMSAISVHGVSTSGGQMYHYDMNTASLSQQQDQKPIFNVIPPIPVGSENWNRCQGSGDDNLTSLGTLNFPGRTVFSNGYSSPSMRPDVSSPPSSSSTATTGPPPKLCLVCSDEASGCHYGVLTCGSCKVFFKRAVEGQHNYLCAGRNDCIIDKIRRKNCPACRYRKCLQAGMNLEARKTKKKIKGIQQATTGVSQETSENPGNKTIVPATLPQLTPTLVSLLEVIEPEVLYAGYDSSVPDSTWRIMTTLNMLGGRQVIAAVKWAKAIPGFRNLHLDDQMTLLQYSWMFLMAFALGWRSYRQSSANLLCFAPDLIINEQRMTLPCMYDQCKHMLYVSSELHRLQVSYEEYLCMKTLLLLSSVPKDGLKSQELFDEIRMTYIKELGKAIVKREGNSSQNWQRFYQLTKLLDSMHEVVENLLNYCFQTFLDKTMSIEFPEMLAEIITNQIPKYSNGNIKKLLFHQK
Kind of assay: Glucocorticoid Receptor Binding Assay (Method 1), [3H]-dexamethasone competition, A549 cell extract. As to conditions: 1.86 nM [3H]-dexamethasone, read-out: GR Ki (nM) Method 1. Put shortly:
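Receptor source: sonicated extract of human A549 lung epithelial cells in glycerol/Tris-HCl pH 7.2 buffer with sodium molybdate. [3H]-dexamethasone competition run 16 h at 4 °C; unbound radioligand stripped with dextran-coated charcoal (8 min, RT) and receptor-bound radioactivity quantified by scintillation counting.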

For `COc1ccc(C(C)(c2ccccc2)c2c[nH]c3c(C)cccc23)cc1` (centres unmarked) [Example 28, 3-[1-(4-Methoxy-phenyl)-1-phenyl-ethyl]-7-methyl-1H-indole], the Ki at human MR was under 500 nM; at glucocorticoid receptor it was under 1000 nM.
For `CCC(CC)(c1ccc(F)cc1)c1c[nH]c2c([N+](=O)[O-])cccc12` [Example 75, 3-[1-Ethyl-1-(4-fluoro-phenyl)-propyl]-7-nitro-1H-indole], in that order: under 500 nM and under 500 nM.
With `CCC(CC)(c1cccc(F)c1)c1c[nH]c2c(NS(C)(=O)=O)cccc12` [Example 72, N-{3-[1′-Ethyl-1-(3-fluoro-phenyl)-propyl]-1H-indol-7-yl}-methanesulfonamide], the Ki on human MR and at glucocorticoid receptor was under 500 nM in each case.
Regarding `CCC(CC)(c1ccccc1)c1c[nH]c2c(NS(C)(=O)=O)cccc12` [Example 61, N-[3-(1-Ethyl-1-phenyl-propyl)-1H-indol-7-yl]-methanesulfonamide], the Ki at human MR and on glucocorticoid receptor was under 500 nM throughout.
As for `CS(=O)(=O)Nc1cccc2c(C3(c4ccccc4)CCOCC3)c[nH]c12` [Example 33, N-[3-(4-Phenyl-tetrahydro-pyran-4-yl)-1H-indol-7-yl]-methanesulfonamide], the Ki at human MR and at glucocorticoid receptor was under 500 nM each time.
Take `CCC(CC)(c1cc2cc(OC)ccc2o1)c1c[nH]c2c(NS(C)(=O)=O)cccc12` [Example 29, N-{3-[1-Ethyl-1-(5-methoxy-benzofuran-2-yl)-propyl]-1H-indol-7-yl}-methanesulfonamide]: the inhibitory constant (Ki) on human MR is under 500 nM; at glucocorticoid receptor, under 1000 nM.
For `O=C(O)CCn1cc(C(c2ccccc2)(c2ccccc2)c2ccccc2)c2ccccc21` [Example 52, 3-(3-Trityl-indol-1-yl)-propionic acid], in that order: under 10000 nM and under 10000 nM.
`CCC(CC)(c1ccc(OCc2ccccc2)cc1)c1c[nH]c2c(NS(C)(=O)=O)cccc12` [Example 17, N-{3-[1-(4-Benzyloxy-phenyl)-1-ethyl-propyl]-1H-indol-7-yl}-methanesulfonamide]: the Ki on human MR and at glucocorticoid receptor was under 500 nM each time.
On to `CC(C)(c1csc2ccccc12)c1c[nH]c2c(NS(C)(=O)=O)cccc12` [Example 14, N-[3-(1-Benzo[b]thiophen-3-yl-1-methyl-ethyl)-1H-indol-7-yl]-methanesulfonamide], for which the Ki at human MR and at glucocorticoid receptor was under 500 nM in each case.
As for `CCC(CC)(c1ccc(C)cc1F)c1c[nH]c2c(NS(C)(=O)=O)cccc12` [Example 57, N-{3-[1-Ethyl-1-(2-fluoro-4-methyl-phenyl)-propyl]-1H-indol-7-yl}-methanesulfonamide], the Ki on human MR and on glucocorticoid receptor was under 500 nM each time.
With `CCCC(C)(c1ccc(OC)cc1)c1c[nH]c2c(N)cccc12` (centres unmarked) [Example 50, 3-[1-(4-Methoxy-phenyl)-1-methyl-butyl]-1H-indol-7-ylamine], the Ki at human MR and on glucocorticoid receptor was under 500 nM each time.
On to `CCCC(C)(c1cccc(OC)c1)c1c[nH]c2c(N)cccc12` (centres unmarked) [Example 38, 3-[1-(3-Methoxy-phenyl)-1-methyl-butyl]-1H-indol-7-ylamine], for which the figures for the Ki at human MR and at glucocorticoid receptor were under 500 nM and under 1000 nM, respectively.
As to `CCC(CC)(c1cc2cc(Cl)ccc2o1)c1c[nH]c2c(NS(C)(=O)=O)cccc12` [Example 11, N-{3-[1-(5-Chloro-benzofuran-2-yl)-1-ethyl-propyl]-1H-indol-7-yl}-methanesulfonamide], the inhibition constant Ki was under 500 nM at human MR and under 10000 nM at glucocorticoid receptor.
Take `Cc1ccc(C(C)(C)c2c[nH]c3c(NS(C)(=O)=O)cccc23)cc1` [Example 12, N-[3-(1-Methyl-1-p-tolyl-ethyl)-1H-indol-7-yl]-methanesulfonamide]: the Ki at human MR and on glucocorticoid receptor was under 500 nM throughout.
Consider `CCC(CC)(c1ccc(C)c(C)c1)c1c[nH]c2c(NS(C)(=O)=O)cccc12` [Example 58, N-{3-[1-(3,4-Dimethyl-phenyl)-1-ethyl-propyl]-1H-indol-7-yl}-methanesulfonamide], for which the Ki at human MR and at glucocorticoid receptor was under 500 nM each time.
In the case of `CC(C)(c1ccccc1)c1c[nH]c2c(NS(C)(=O)=O)cccc12` [Example 78, N-[3-(1-Methyl-1-phenyl-ethyl)-1H-indol-7-yl]-methanesulfonamide], the inhibition constant Ki at human MR and on glucocorticoid receptor was under 500 nM each time.
In the case of `CCC(CC)(c1cc2cccc(OC)c2o1)c1c[nH]c2c(NS(C)(=O)=O)cccc12` [Example 4, N-{3-[1-Ethyl-1-(7-methoxy-benzofuran-2-yl)-propyl]-1H-indol-7-yl}-methanesulfonamide], the inhibitory constant (Ki) on human MR and at glucocorticoid receptor was under 500 nM in each case.
For the compound `CCC(C)(c1ccc(OC)cc1)c1c[nH]c2c(C)cccc12` (centres unmarked) [Example 31, 3-[1-(4-Methoxy-phenyl)-1-methyl-propyl]-7-methyl-1H-indole], the Ki on human MR and on glucocorticoid receptor was under 500 nM each time.
`CCC(C)(c1ccc(C)cc1)c1c[nH]c2c(NS(C)(=O)=O)cccc12` (centres unmarked) [Example 65, N-[3-(1-Methyl-1-p-tolyl-propyl)-1H-indol-7-yl]-methanesulfonamide]: the Ki on human MR and at glucocorticoid receptor was under 500 nM throughout.
For `CCc1ccc(C(CC)(CC)c2c[nH]c3c(NS(C)(=O)=O)cccc23)cc1` [Example 66, N-{3-[1-Ethyl-1-(4-ethyl-phenyl)-propyl]-1H-indol-7-yl}-methanesulfonamide], the Ki at human MR and on glucocorticoid receptor was under 500 nM in each case.
For `CCC(CC)(c1ccc(C)cc1)c1c[nH]c2c(NS(C)(=O)=O)cccc12` [Example 54, N-[3-(1-Ethyl-1-p-tolyl-propyl)-1H-indol-7-yl]-methanesulfonamide], the inhibition constant (Ki) at human MR and at glucocorticoid receptor was under 500 nM in each case.
On to `CCC(CC)(c1cc2ccccc2o1)c1c[nH]c2c(NS(C)(=O)=O)cccc12` [Example 2, N-[3-(1-Benzofuran-2-yl-1-ethyl-propyl)-1H-indol-7-yl]-methanesulfonamide], for which the inhibitory constant (Ki) at human MR and on glucocorticoid receptor was under 500 nM in each case.
For `CCC(CC)(c1ccc(O)cc1)c1c[nH]c2c(NS(C)(=O)=O)cccc12` [Example 18, N-{3-[1-Ethyl-1-(4-hydroxy-phenyl)-propyl]-1H-indol-7-yl}-methanesulfonamide], the Ki at human MR and at glucocorticoid receptor was under 500 nM in each case.
Take `CCC(C)(c1ccc(F)cc1)c1c[nH]c2c(NS(C)(=O)=O)cccc12` (centres unmarked) [Example 73, N-{3-[1-(4-Fluoro-phenyl)-1-methyl-propyl]-1H-indol-7-yl}-methanesulfonamide]: the inhibitory constant (Ki) on human MR and on glucocorticoid receptor was under 500 nM in each case.
In the case of `CCC(CC)(c1ccc(F)cc1)c1c[nH]c2c(N)cccc12` [Example 79, 3-[1-Ethyl-1-(4-fluoro-phenyl)-propyl]-1H-indol-7-ylamine], the Ki at human MR was under 500 nM; on glucocorticoid receptor it was under 1000 nM.
